Common to all, as to type: physicochemical
Data set [1] can be described thus: Storage stability of temozolomide in type 3 packaging, purity by HPLC (Example 3). The note with it: for Initial purity, % by HPLC: before starting the storage period; for Initial purity, % by HPLC / Purity, % by HPLC after 1 month of storage / Purity, % by HPLC after 2 months of storage / Purity, % by HPLC after 6 month of storage: % area; for Purity, % by HPLC after 1 month of storage / Purity, % by HPLC after 2 months of storage / Purity, % by HPLC after 6 month of storage: warehouse conditions; for Purity, % by HPLC after 6 month of storage: 6 months. How it is done:
Analytical measurements of the temozolomide samples were performed using an HPLC system equipped with Phenomenex Synergi™ Fusion-RP C18 column, 250×4.6 mm, and a UV detector operated on 250 nm. Analyses were performed using the following mobile phase, at flow rate of 1.0 ml/minute: Mobile phase: 90% Solution A: 0.02M potassium dihydrogen phosphate buffer (pH 3); 10% Solution B: acetonitrile.
Three different samples of temozolomide were stored at warehouse conditions in a type 3 packaging. A small quantity was taken from each sample after 1, 2 and 6 months and the purity was checked by HPLC and compared to the original HPLC chromatogram of each sample (before starting the storage period). The purity of each sample was obtained as % area by the HPLC chromatogram and compared to the initial purity value (before starting the storage period).

Data set [2] in a line: Colour stability of temozolomide in different drug packaging at warehouse conditions (Example 2). An excerpt: Exemplary packaging, which can be used in the storage system of the present invention, can include, e.g., packaging type 1, packaging type 2 and/or packaging type 3. When packaging type 1 is used, the temozolomide is preferably contained (e.g., packed or packaged) in a sealed transparent polymeric bag (e.g., a sealed polyethylene bag). When packaging type 2 is used, the temozolomide is preferably contained (e.g., packed or packaged) in a sealed transparent polymeric bag (e.g., a sealed polyethylene bag), which is inserted into another opaque (e.g., black) polymeric bag (e.g., a black polyethylene bag), which is then sealed effectively to prevent penetration of humidity, oxygen and/or light. When packaging type 3 is used, the temozolomide is preferably contained (e.g., packaged or packed) in a sealed transparent polymeric bag (e.g., a sealed polyethylene bag), which is inserted in an opaque (e.g., black) polymeric bag (e.g., a black polyethylene bag), which is then sealed and, in turn, put inside a sealed laminated aluminum bag, which is then sealed. For packaging type 2 and packaging type 3, a desiccant can be interposed (e.g., dispersed) between the two plastic layers (e.g., between the transparent and opaque polymeric bags).
Exemplary packaging for the storage system of the present invention can include packaging type 1, wherein temozolomide is packed and sealed in a transparent polyethylene bag. Exemplary packaging for the storage system of the present invention also can include packaging type 2, wherein temozolomide is packed and sealed in a transparent polyethylene bag, which is inserted into an opaque (e.g., black) polyethylene bag, which is then sealed, wherein the packaging is sealed effectively to prevent penetration of humidity and/or oxygen. Exemplary packaging for the storage system of the present invention also can include packaging type 3, wherein temozolomide is packed and sealed in a transparent polyethylene bag, which is packed in an opaque (e.g., black) polyethylene bag, which is then sealed and, in turn, packed and sealed in a laminated aluminum bag, which is then sealed. In packaging type 2 and in packaging type 3, a desiccant optionally can be interposed (e.g., dispersed) between the two polymeric bags/layers. In accordance with the present invention, each packaging, e.g., packaging type 1, type 2, and/or type 3 as described herein, can be packed under an inert atmosphere (e.g., under a nitrogen atmosphere) or in ambient air. In a preferred embodiment, the storage system of the present invention includes a type 3 packaging with a silica gel desiccant, wherein the packaging is optionally packed and sealed under a nitrogen atmosphere. An exemplary type 3 packaging is described in Example 2, which describes a type 3 packaging containing a silica gel desiccant, optionally under nitrogen atmosphere, which is effective in maintaining the temozolomide white color for long storage periods. […]

Data set [3] is described as follows: Effect of relative humidity on temozolomide stability, visual colour test in open glass vessel (Example 4). On the procedure:
Three samples of temozolomide were stored in an open glass vessel at different relative humidity (RH) conditions for storage periods of up to 3 weeks, after which time the color changes were evaluated.

SMILES strings stand for the structures.

`Cn1nnc2c(C(N)=O)ncn2c1=O` [Sample 519, temozolomide]: in data set [1], the “Initial purity, % by HPLC” value turned out to be 97.9%. Besides, in data set [1] (type 3 packaging), the “Purity, % by HPLC after 1 month of storage” value turned out to be 97.3%; the “Purity, % by HPLC after 2 months of storage” value is 97.3%; the “Purity, % by HPLC after 6 month of storage” value is given as 96.2%. The “Rate of decomposition on storage” value in data set [1] (type 3 packaging, wet sample (water about 1.8%) vs dry samples 3417 and 3034 (water less than 0.1%, KF)) is listed as “appeared to decompose at a faster rate than the dry samples”.

Consider `Cn1nnc2c(C(N)=O)ncn2c1=O` [temozolomide, 8-carbamoyl-3-methyl-imidazo[5,1-d]-1,2,3,5-tetrazin-4(3H)-one], for which the Color entry in data set [2] (Type 1 at ambient air, storage period 6 weeks, warehouse conditions, initially white) is given as “pinkish”; in data set [2] (Type 3 - the inner bag of entry 2 was left out (sealed) for two more weeks, 6 weeks), “pinkish”; in data set [2] (Type 3 at ambient air containing a desiccant in the inner packaging, 4 weeks, warehouse conditions), “white”; in data set [2] (Type 3 at ambient air containing a desiccant in the inner packaging, 10 weeks, warehouse conditions), “white”; in data set [2] (Type 3 under nitrogen containing a desiccant in the inner packaging, 6 weeks, warehouse conditions), “white”; in data set [2] (Type 3 under nitrogen without desiccant in the inner packaging, 8 weeks, warehouse conditions), “pinkish”. Besides, the “Result of visual test” value in data set [3] (RH 20%, 3 weeks) was “White”; in data set [3] (RH 80%, 4 days), “pink color”.

For `Cn1nnc2c(C(N)=O)ncn2c1=O` [Sample 3034, temozolomide], the “Initial purity, % by HPLC” value in data set [1] was 99.8%. Moreover, in data set [1] (type 3 packaging), the “Purity, % by HPLC after 1 month of storage” value is 99.7%; the “Purity, % by HPLC after 2 months of storage” value is 99.8%; the “Purity, % by HPLC after 6 month of storage” value stood at 99.8%.

For `Cn1nnc2c(C(N)=O)ncn2c1=O` [Sample 3417, temozolomide], the “Initial purity, % by HPLC” value in data set [1] is reported as 99.7%. In data set [1] (type 3 packaging), the “Purity, % by HPLC after 1 month of storage” value is reported as 99.8%; the “Purity, % by HPLC after 2 months of storage” value is given as 99.9%; the “Purity, % by HPLC after 6 month of storage” value is recorded as 99.7%.

For the origin of these results see patent publication US20060222792A1, “Temozolomide storage system” (CHEMAGIS LTD., priority 2006, published 2006).
